According to PubChem BioAssay (NCI):
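1) Cells in 96-well plates. 2) Compound, 48 h, 5 concentrations. 3) Linear interpolation between surrounding doses. 4) Unreached endpoint = highest concentration. TGI: total growth inhibition.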 Where a SMILES comes first, the peptide text is derived from it. Side-chain parts run from the residue outwards. The star is where a group is joined. Cbz = O=C(OCc1ccccc1)*; Boc = CC(C)(C)OC(=O)*

Assays:
Assay in all cases: DTP human tumour cell line panel, 48 h
[1] = system: U251 CNS
[2] = system: SK-MEL-5 melanoma
[3] = system: M14 melanoma
[4] = system: PC-3 prostate
[5] = system: K-562 leukemia
[6] = system: 786-0 renal
[7] = system: MDA-N
[8] = system: HCC-2998 colon
[9] = system: OVCAR-3 ovarian
[10] = system: DU-145 prostate
[11] = system: SF-268 CNS
[12] = system: SW-620 colon
[13] = system: MDA-MB-231 breast
[14] = system: A549 NSCLC
[15] = system: SF-295 CNS
[16] = system: SK-MEL-28 melanoma
[17] = system: SR leukemia
[18] = system: KM12 colon

SMILES	TGI [1]	TGI [2]	TGI [3]	TGI [4]	TGI [5]	TGI [6]	TGI [7]	TGI [8]	TGI [9]	TGI [10]	TGI [11]	TGI [12]	TGI [13]	TGI [14]	TGI [15]	TGI [16]	TGI [17]	TGI [18]
O=C1O[C@H]2C3C4CCC(C4[C@@H]2I)[C@H]13 (some centres not stated)	> 100 µM	> 100 µM	> 100 µM	> 100 µM	> 100 µM	> 100 µM	> 100 µM	> 100 µM	> 100 µM	> 100 µM	> 100 µM	> 100 µM	> 100 µM	> 100 µM	> 100 µM	> 100 µM	> 100 µM	> 100 µM
N#Cc1c(N2CCCC2)nsc1Nc1ccc(F)cc1	> 100 µM	> 100 µM	> 100 µM	> 100 µM	> 100 µM	> 100 µM	> 100 µM	> 100 µM	> 100 µM	> 100 µM	> 100 µM	> 100 µM	> 100 µM	> 100 µM	> 100 µM	> 100 µM	> 100 µM	> 100 µM
CC(C)(C)OC(=O)NC(CCCCNC(=O)CNC(=O)OCc1ccccc1)C(=O)NC(CCCCNC(=O)CNC(=O)OCc1ccccc1)C(=O)NC(CCCCNC(=O)CNC(=O)OCc1ccccc1)C(=O)NC(CCCCNC(=O)CNC(=O)OCc1ccccc1)C(=O)O (configuration not stated) (Boc-K([Gly-Cbz])K([Gly-Cbz])K([Gly-Cbz])K([Gly-Cbz])-OH; configuration not given here)	> 100 µM	> 100 µM	> 100 µM	> 100 µM	> 100 µM	> 100 µM	> 100 µM	> 100 µM	> 100 µM	> 100 µM	> 100 µM	> 100 µM	> 100 µM	> 100 µM		> 100 µM	> 100 µM	
Cc1cn([C@@H]2C[C@H](CO)[C@@H]2O)c(=O)[nH]c1=O	> 100 µM	> 100 µM		> 100 µM	> 100 µM	> 100 µM	> 100 µM	> 100 µM	> 100 µM	> 100 µM	> 100 µM	> 100 µM	> 100 µM	> 100 µM	> 100 µM	> 100 µM	> 100 µM	> 100 µM
O=c1[nH]nc(Cc2ccc(Cl)cc2)n1/N=C/c1c[nH]c2ccccc12	> 100 µM	> 100 µM	> 100 µM	> 100 µM	> 100 µM	> 100 µM	> 100 µM	> 100 µM	> 100 µM	> 100 µM	> 100 µM	> 100 µM	> 100 µM	> 100 µM	> 100 µM	> 100 µM	> 100 µM	> 100 µM
CC(C)C1=C(Cc2ccccc2)C(=O)O/C1=C\c1ccc(O)c(Cl)c1	30.3 µM	31.2 µM	31.3 µM	31.7 µM	38.8 µM	30.5 µM	30.1 µM	28.7 µM	28 µM	32.4 µM	30.4 µM	34.9 µM	29.9 µM	28.4 µM	29.5 µM	30.9 µM	26.9 µM	32 µM
CC1(C)CN=CC(C)(OCc2ccccc2)C(=O)NC(C)(C)CN=CC(C)(OCc2ccccc2)C(=O)N1 (configuration not stated)	> 10 µM	> 10 µM	> 10 µM	> 10 µM	> 10 µM	> 10 µM	> 10 µM	> 10 µM	> 10 µM	> 10 µM	> 10 µM	> 10 µM	> 10 µM	> 10 µM	> 10 µM	> 10 µM	> 10 µM	> 10 µM
O=C1c2cccnc2-c2nccc3c2c1nc1ccc(Br)cc13	0.147 µM	0.0887 µM	0.0773 µM	0.234 µM	0.331 µM	0.0986 µM	0.249 µM	0.308 µM	0.0586 µM	0.0577 µM	0.143 µM	0.17 µM	0.211 µM	0.387 µM	0.114 µM	0.169 µM	0.0372 µM	0.207 µM
COc1cc(C2c3cc(OC)c(OC)c(O)c3C(=O)C3CCC(=O)N32)cc(OC)c1OC (configuration not stated)	> 100 µM	> 100 µM	> 100 µM	> 100 µM	> 100 µM	> 100 µM	34.5 µM	> 100 µM	> 100 µM	> 100 µM	> 100 µM	> 100 µM	> 100 µM	> 100 µM	> 100 µM	> 100 µM	> 100 µM	> 100 µM
CC1C(C#N)(C#N)C(C#N)=C(N)C1(C)[N+](=O)[O-] (configuration not stated)	> 100 µM	> 100 µM	> 100 µM	> 100 µM	> 100 µM	> 100 µM	> 100 µM	> 100 µM	> 100 µM	> 100 µM	> 100 µM	> 100 µM	> 100 µM	> 100 µM	> 100 µM		> 100 µM	> 100 µM
CC(=O)OCC1OC(n2c(N)c(C#N)c(-c3cccc(Cl)c3)c(C#N)c2=S)C(OC(C)=O)C(OC(C)=O)C1OC(C)=O (configuration not stated)	78.9 µM	30.3 µM	57.1 µM	> 100 µM	> 100 µM	60.5 µM	54.7 µM	22.7 µM	58 µM	82 µM	39.4 µM	> 100 µM	50.2 µM	> 100 µM	> 100 µM	> 100 µM	42.8 µM	38.9 µM
O=C(NNS(=O)(=O)c1ccccc1)c1csc(NC(=S)NC2CCCCC2)n1	> 100 µM	27.6 µM	> 100 µM	> 100 µM	> 100 µM	32.4 µM	40.2 µM	> 100 µM	34.4 µM	81.5 µM	62.8 µM	72.9 µM	52.6 µM	> 100 µM	> 100 µM		> 100 µM	> 100 µM
COc1ccc(N2C(=O)C3c4[nH]c5ccccc5c4C4c5ccccc5CC4C3C2=O)cc1 (configuration not stated)	> 100 µM		> 100 µM	> 100 µM	> 100 µM	> 100 µM	> 100 µM	> 100 µM	> 100 µM	> 100 µM	> 100 µM	> 100 µM	> 100 µM	> 100 µM	> 100 µM	> 100 µM	> 100 µM	> 100 µM
CN(/N=C/c1ccc(Cl)cc1)C1=NCCCCN1	> 100 µM	> 100 µM	57.4 µM	> 100 µM	> 100 µM	> 100 µM	> 100 µM	> 100 µM	> 100 µM	> 100 µM	> 100 µM	> 100 µM	> 100 µM	> 100 µM	> 100 µM		> 100 µM	> 100 µM
O=c1[nH]c(=O)n(COCc2ccccc2)c2ccccc12	> 100 µM	> 100 µM	> 100 µM	> 100 µM	> 100 µM	> 100 µM	> 100 µM		> 100 µM	> 100 µM		> 100 µM	> 100 µM	> 100 µM	> 100 µM	> 100 µM	> 100 µM	> 100 µM
C=CCOCn1ccc(N)nc1=O		> 100 µM	> 100 µM	> 100 µM	> 100 µM	> 100 µM	> 100 µM	> 100 µM		> 100 µM	> 100 µM	> 100 µM	> 100 µM	> 100 µM	> 100 µM	> 100 µM	> 100 µM	> 100 µM
CC(C)(C)OC(=O)n1c(Cl)c(C=O)c2ccccc21	> 100 µM	> 100 µM	82.9 µM	64.6 µM	> 100 µM	46.6 µM	> 100 µM		40.8 µM	39.6 µM	36.2 µM	> 100 µM	84.5 µM	> 100 µM	> 100 µM	> 100 µM	> 100 µM	39.2 µM
C[C@@]12C[C@@H](c3ccccc3O1)N1Cc3ccccc3CSC1=N2	> 100 µM	> 100 µM	> 100 µM	> 100 µM	> 100 µM	> 100 µM	> 100 µM	> 100 µM	> 100 µM	> 100 µM	> 100 µM	> 100 µM	> 100 µM		> 100 µM	> 100 µM	> 100 µM	> 100 µM
CN(C)C=NCC(O)c1ccccc1 (configuration not stated)		> 100 µM	> 100 µM	> 100 µM	> 100 µM	> 100 µM	> 100 µM		> 100 µM	> 100 µM	> 100 µM	> 100 µM	> 100 µM	> 100 µM		> 100 µM	> 100 µM	> 100 µM
CC(=O)N1C(Nc2cccc3nc(C)ccc23)CCN1c1ccccc1 (configuration not stated)		> 10 µM	> 10 µM	> 10 µM	> 10 µM	> 10 µM	> 10 µM	> 10 µM	> 10 µM	> 10 µM	> 10 µM	> 10 µM	> 10 µM	> 10 µM	> 10 µM	> 10 µM	> 10 µM	
